The values below come from article PMC10296591, “Potent GST Ketosteroid Isomerase Activity Relevant to Ecdysteroidogenesis in the Malaria Vector Anopheles gambiae” (Biomolecules, 2023).

Common to all, as to format: biochemical
For assay [1], the target named is T1, Nobo (Anopheles gambiae, UniProt Q8WQJ5).
T1 construct: gene GSTe8
T1 sequence (Q8WQJ5 1-217): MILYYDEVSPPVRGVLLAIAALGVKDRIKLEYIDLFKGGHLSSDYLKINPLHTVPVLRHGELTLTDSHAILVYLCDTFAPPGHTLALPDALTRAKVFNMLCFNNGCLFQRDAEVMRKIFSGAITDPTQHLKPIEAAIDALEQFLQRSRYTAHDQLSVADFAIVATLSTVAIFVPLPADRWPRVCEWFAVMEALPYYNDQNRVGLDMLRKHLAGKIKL
The assay is described as follows: steady-state kinetics of double-bond isomerization by purified enzyme (kcat/Km).

Assay [2] has as its target T1, Nobo. As to the kind of experiment: spectrophotometric inhibition assay of purified enzyme with DCNB and glutathione.
Another assay addresses T2, Nobo D111N (Anopheles gambiae, UniProt Q8WQJ5, D111N).
T2 construct: gene GSTe8; N-terminal hexahistidine tag
The assay is described as follows: spectrophotometric inhibition assay of purified mutant enzyme with DCNB and glutathione.

In assay [3] the target is T1, Nobo. The assay is described as follows: spectrophotometric specific activity of purified enzyme.

As for `C[C@]12CCC(=O)CC1=CC[C@@H]1[C@@H]2CC[C@]2(C)C(=O)CC[C@@H]12` [5-AD, 5-androsten-3,17-dione], the “steady-state kinetics of double-bond isomerization by purified enzyme (kcat/Km)” value on Nobo [1] was “(6.9 ± 0.3) × 10^6 M^−1s^−1”. Consider `C[C@]12CC[C@@H]3c4ccc(O)cc4CC[C@H]3[C@@H]1CC[C@@H]2O` [17β-estradiol], for which the IC50 – broadly, the concentration at which inhibition is half-maximal – against Nobo [2] was 0.17 ± 0.03 µM; on Nobo D111N, 15.5 ± 6 µM. At Nobo [3], `C=CCN=C=S` [AITC, allyl isothiocyanate] displayed a specific activity of 3.3 ± 0.4 μmol/min per mg. On the same count and under the same terms, in the case of `O=[N+]([O-])c1ccc(Cl)c([N+](=O)[O-])c1` [CDNB, 1-chloro-2,4-dinitribenzene] it was 24.7 ± 3.4 μmol/min per mg; in that of `CC(C)(OO)c1ccccc1` [CuOOH, cumene hydroperoxide], 5.0 ± 0.5 μmol/min per mg; in that of `O=[N+]([O-])c1ccc(Cl)c(Cl)c1` [DCNB, 1,2-dichloro-4-nitrobenzene], 16.4 ± 1.9 μmol/min per mg.

In turn, `S=C=NCCc1ccccc1` [PEITC, phenethyl isothiocyanate] had a specific activity at Nobo [3] of 0.4 ± 0.1 μmol/min per mg.
